We go through 21 compounds from patent publication US7820669B2 (NYCOMED GmbH, priority 2004, dated 2010).

One data set deals with T1, PDE4B2 (Homo sapiens, UniProt Q07343).
T1 construct: made in house; host or cells: SF21 insect cells (baculovirus generated in SF9 cells, pCR-Bac vector)
Nature of the data set: Inhibition of PDE4B2 activity, modified [3H]cAMP SPA (scintillation proximity assay) test. It counts as biochemical. The note with it: recombinant PDE4B2 expressed in SF21 insect cells; 0.5 μM cAMP; 15 min at 37° C.; read-out: PDE4 Inhibition [measured as -logIC50 (mol/l)] (converted). Here is the method: PDE4B2 (GB no. M97515) was a gift of Prof. M. Conti (Stanford University, USA). It was amplified from the original plasmid (pCMV5) via PCR with primers Rb9 (5′-[…]-3′) and Rb10 (5′-[…]-3′) and cloned into the pCR-Bac vector (Invitrogen, Groningen, NL).
The recombinant baculovirus was prepared by means of homologous recombination in SF9 insect cells. The expression plasmids were cotransfected with Bac-N-Blue (Invitrogen, Groningen, NL) or Baculo-Gold DNA (Pharmingen, Hamburg) using a standard protocol (Pharmingen, Hamburg). Wt vrus-free recombinant virus supernatants were selected using plaque assay methods. After that, high-titre virus supernatants were, prepared by amplifying 3 times. PDE4B2 was expressed in SF21 cells by infecting 2×10^6 cells/ml with an MOI (multiplicity of infection) between 1 and 10 in serum-free SF900 medium (Life Technologies, Paisley, UK). The cells were cultured at 28° C. for 48-72 hours, after which they were pelleted for 5-10 min at 1000 g and 4° C.
The SF21 insect cells were resuspended, at a concentration of approx. 10^7 cells/ml, in ice-cold (4° C.) homogenization buffer (20 mM Tris, pH 8.2, containing the following additions: 140 mM NaCl, 3.8 mM KCl, 1 mM EGTA, 1 mM MgCl2, 10 mM β-mercaptoethanol, 2 mM benzamidine, 0.4 mM Pefablock, 10 μM leupeptin, 10 μM pepstatin A, 5 μM trypsin inhibitor) and disrupted by ultrasonication. The homogenate was then centrifuged for 10 min at 1000×g and the supernatant was stored at −80° C. until sub-sequent use (see below). The protein content was determined by the Bradford method (BioRad, Munich) using BSA as the standard.
PDE4B2 activity was inhibited by the compounds according to the invention in a modified SPA (scintillation proximity assay) test, supplied by Amersham Biosciences (see procedural instructions “phosphodiesterase [3H]cAMP SPA enzyme assay, code TRKQ 7090”), carried out in 96-well microtitre plates (MTP's). The test volume is 100 μl and contains 20 mM Tris buffer (pH 7.4), 0.1 mg of BSA (bovine serum albumin)/ml, 5 mM Mg^2+, 0.5 μM cAMP (including about 50,000 cpm of [3H]cAMP), 1 μl of the respective substance dilution in DMSO and sufficient recombinant PDE (1000×g supernatant, see above) to ensure that 10-20% of the cAMP is converted under the said experimental conditions. […] After a preincubation of 5 min at 37° C., the reaction is started by adding the substrate (cAMP) and the assays are incubated for a further 15 min; after that, they are stopped by adding SPA beads (50 μl). In accordance with the manufacturer's instructions, the SPA beads had previously been resuspended in water, but were then diluted 1:3 (v/v) in water; the diluted solution also contains 3 mM IBMX to ensure a complete PDE activity stop. After the beads have been sedimented (>30 min), the MTP's are analyzed in commercially available luminescence detection devices. The corresponding IC50 values of the compounds for the inhibition of PDE4B2 activity are determined from the concentration-effect curves by means of non-linear regression.
(In a scintillation proximity assay essentially only radioactivity close to the scintillant gives light.)

T1 sequence (Q07343 1-564 isoform Q07343-2): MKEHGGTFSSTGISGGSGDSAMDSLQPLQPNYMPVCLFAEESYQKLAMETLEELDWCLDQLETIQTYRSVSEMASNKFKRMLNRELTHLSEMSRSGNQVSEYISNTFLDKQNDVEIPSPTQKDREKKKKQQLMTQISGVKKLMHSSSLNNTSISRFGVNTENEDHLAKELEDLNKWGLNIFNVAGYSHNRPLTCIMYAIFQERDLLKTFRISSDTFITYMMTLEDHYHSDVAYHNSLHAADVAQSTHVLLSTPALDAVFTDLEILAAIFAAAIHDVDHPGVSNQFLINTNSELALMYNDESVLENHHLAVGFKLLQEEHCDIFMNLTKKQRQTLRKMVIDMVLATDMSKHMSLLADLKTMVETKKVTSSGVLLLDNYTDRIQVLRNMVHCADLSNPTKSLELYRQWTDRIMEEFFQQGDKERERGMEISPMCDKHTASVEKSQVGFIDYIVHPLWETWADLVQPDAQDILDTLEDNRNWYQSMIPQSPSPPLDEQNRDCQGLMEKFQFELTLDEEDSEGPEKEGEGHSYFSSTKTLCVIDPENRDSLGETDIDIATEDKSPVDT

The term melting point denotes the temperature, or range, at which the solid turns liquid. For `COc1ccc(C2=NN(C3CCN(C(=O)c4ccccc4OC)CC3)C(=O)C(C)(C)C2)cc1OC` [Compound 8, 6-(3,4-Dimethoxy-phenyl)-2-{1-[1-(2-methoxy-phenyl)-methanoyl]-piperidin-4-yl}-4,4-dimethyl-4,5-dihydro-2H-pyridazin-3-one], the melting point lay within 157 to 159 °C. In addition, the IC50 at PDE4B2 was 0.209 nM.
For `CCC1(CC)CC(c2ccc(OC)c(OC)c2)=NN(C2CCN(S(=O)(=O)c3ccccc3C#N)CC2)C1=O` [Compound 16, 2-{4-[3-(3,4-Dimethoxy-phenyl)-5,5-diethyl-6-oxo-5,6-dihydro-4-pyridazin-1-yl]-piperidin-1-sulfonyl}-benzonitrile] the same measures were 156 to 157 °C and 0.355 nM.
Turning to `CCC1(CC)CC(c2ccc(OC)c(OC)c2)=NN(C2CCN(C(=O)c3ccccc3OC)CC2)C1=O` [Compound 18, 6-(3,4-Dimethoxy-phenyl)-4,4-diethyl-2-{1-[1-(2-methoxy-phenyl)-methanoyl]-piperidin-4-yl}-4,5-dihydro-2H-pyridazin-3-one], the melting point lay in the range of 160 to 162 °C.
Regarding `COc1ccc(C2=NN(C3CCN(S(=O)(=O)c4ccc(C)cc4)CC3)C(=O)C(C)(C)C2)cc1OC` [Compound 10, 6-(3,4-Dimethoxy-phenyl)-4,4-dimethyl-2-[1-(toluene-4-sulfonyl)-piperidin-4-yl]-4,5-dihydro-2H-pyridazin-3-one], the melting point fell in the range of 161 to 164 °C.
With `COc1ccc(C2=NN(C3CCN(CC(N)=O)CC3)C(=O)C(C)(C)C2)cc1OC` [Compound 3], the IC50 at PDE4B2 is 1.86 nM.
`COc1ccc(C2=NN(C3CCN(C(=O)CN4CCN(C)CC4)CC3)C(=O)C(C)(C)C2)c2c1OC(C)(C)C2` [Compound 19, 6-(7-Methoxy-2,2-dimethyl-2,3-dihydro-benzofuran-4-yl)-4,4-dimethyl-2-{1-[2-(4-methyl-piperazin-1-yl)-ethanoyl]-piperidin-4-yl}-4,5-dihydro-2H-pyridazin-3-one] gave a melting point of 121 to 123 °C.
The same measure, in the same setting: the figure for `COc1ccc(C2=NN(C3CCN(S(=O)(=O)c4ccc(C#N)cc4)CC3)C(=O)C(C)(C)C2)cc1OC` [Compound 6, 4-{4-[3-(3,4-Dimethoxy-phenyl)-5,5-dimethyl-6-oxo-5,6-dihydro-4H-pyridazin-1-yl]-piperidine-1-sulfonyl}-benzonitrile] is 161 to 163 °C; for `COc1ccc(C2=NN(C3CCN(C(=O)CN4C(=O)CCC4=O)CC3)C(=O)C(C)(C)C2)c2c1OC(C)(C)C2` [Compound 20, 1-(2-{4-[3-(7-Methoxy-2,2-dimethyl-2,3-dihydro-benzofuran-4-yl)-5,5-dimethyl-6-oxo-5,6-dihydro-4H-pyridazin-1-yl]-piperidin-1-yl}-2-oxo-ethyl)-pyrrolidine-2,5-dione] it is 240 to 241 °C.
In turn, `COc1ccc(C2=NN(C3CCN(CCC(=O)N4CCOCC4)CC3)C(=O)C(C)(C)C2)cc1OC.Cl` [Compound 2, 6-(3,4-Dimethoxy-phenyl)-4,4-dimethyl-2-[1-(3-morpholin-4-yl-3-oxo-propyl)piperidin-4-yl]-4,5-dihydro-2H-pyridazin-3-one Hydrochloride] showed a melting point of 211 to 213 °C. Besides, the IC50 on PDE4B2 is 25.1 nM.
Taken in the same sequence, the figures for `COc1ccc(C2=NN(C3CCN(S(=O)(=O)c4ccccc4C)CC3)C(=O)C(C)(C)C2)cc1OC` [Compound 5, 6-(3,4-Dimethoxy-phenyl)-4,4-dimethyl-2-[1-(toluene-2-sulfonyl)-piperidin-4-yl]-4,5-dihydro-2H-pyridazin-3-one] were 132 to 133 °C and 0.741 nM.
In the case of `COc1ccc(C2=NN(C3CCN(S(=O)(=O)c4cccc(C)c4)CC3)C(=O)C(C)(C)C2)cc1OC` [Compound 11, 6-(3,4-Dimethoxy-phenyl)-4,4-dimethyl-2-[1-(toluene-3-sulfonyl)-piperidin-4-yl]-4,5-dihydro-2H-pyridazin-3-one], the melting point is 150 to 152 °C.
The same measure, in the same setting: the figure for `CCC1(CC)CC(c2ccc(OC)c(OC)c2)=NN(C2CCN(C(=O)c3ccccc3)CC2)C1=O` [Compound 14, 6-(3,4-Dimethoxy-phenyl)-4,4-diethyl-2-[1-(1-phenyl-methanoyl)-piperidin-4-yl]-4,5-dihydro-2H-pyridazin-3-one] is 160 to 161 °C.
`COc1ccc(C2=NN(C3CCN(S(=O)(=O)c4ccccc4OC(F)(F)F)CC3)C(=O)C(C)(C)C2)cc1OC` [Compound 7, 6-(3,4-Dimethoxy-phenyl)-4,4-dimethyl-2-[1-(2-trifluoromethoxy-benzenesulfonyl)-piperidin-4-yl]-4,5-dihydro-2H-pyridazin-3-one] had a melting point of 143 to 144 °C. For the same compound, at PDE4B2, the IC50 was 2.29 nM.
Taken in the same sequence, the figures for `CCC1(CC)CC(c2ccc(OC)c(OC)c2)=NN(C2CCN(CC(N)=O)CC2)C1=O.Cl` [Compound 15, 2-{4-[3-(3,4-Dimethoxy-phenyl)-5,5-diethyl-6-oxo-5,6-dihydro-4H-pyridazin-1-yl]-piperidin-1-yl}-acetamide Hydrochloride] were 69 to 74 °C and 6.17 nM.
Taken in the same sequence, the figures for `COc1ccc(C2=NN(C3CCN(S(=O)(=O)c4ccccc4C#N)CC3)C(=O)C(C)(C)C2)cc1OC` [Compound 1] were 190 to 192 °C and 0.295 nM.
`COc1ccc(C2=NN(C3CCN(C(=O)CN4C(=O)c5ccccc5C4=O)CC3)C(=O)C(C)(C)C2)cc1OC` [Compound 21, 2-(2-{4-[3-(3,4-Dimethoxy-phenyl)-5,5-dimethyl-6-oxo-5,6-dihydro-4H-pyridazin-1-yl]-piperidin-1-yl}-2-oxo-ethyl)-isoindole-1,3-dione] showed a melting point of 193 to 194 °C.
The compound `COc1ccc(C2=NN(C3CCN(S(=O)(=O)c4cccc(C#N)c4)CC3)C(=O)C(C)(C)C2)cc1OC` [Compound 9, 3-{4-[3-(3,4-Dimethoxy-phenyl)-5,5-dimethyl-6-oxo-5,6-dihydro-4H-pyridazin-1-yl]-piperidine-1-sulfonyl}-benzonitrile] returned a melting point of 158 to 160 °C.
For the compound `COc1ccc(C2=NN(C3CCN(S(=O)(=O)N(C)C)CC3)C(=O)C(C)(C)C2)cc1OC` [Compound 12, 4-[3-(3,4-Dimethoxy-phenyl)-5,5-dimethyl-6-oxo-5,6-dihydro-4H-pyridazin-1-yl]-piperidine-1-sulfonic Acid Dimethylamide], the melting point is 172 to 174 °C.
With `COc1ccc(C2=NN(C3CCN(C(=O)CN4C(=O)CCC4=O)CC3)C(=O)C(C)(C)C2)cc1OC` [Compound 4, 1-(2-{4-[3-(3,4-Dimethoxy-phenyl)-5,5-dimethyl-6-oxo-5,6-dihydro-4H-pyridazin-1-yl]-piperidin-1-yl}-2-oxo-ethyl)-pyrrolidine-2,5-dione], the melting point was 177 to 179 °C. The IC50 on PDE4B2 was 1.29 nM.
`COc1ccc(C2=NN(C3CCN(CC(N)=O)CC3)C(=O)C(C)(C)C2)c2c1OC(C)(C)C2` [Compound 13, 2-{4-[3-(7-Methoxy-2,2-dimethyl-2,3-dihydro-benzofuran-4-yl)-5,5-dimethyl-6-oxo-5,6-dihydro-4H-pyridazin-1-yl]-piperidin-1-yl}-acetamide] came in with a melting point of 215 to 216 °C. For the same compound, the IC50 at PDE4B2 was 0.417 nM.
For `COc1ccc(C2=NN(C3CCN(C(=O)CN4C(=O)COCC4=O)CC3)C(=O)C(C)(C)C2)cc1OC` [Compound 17, 4-(2-{4-[3-(3,4-Dimethoxy-phenyl)-5,5-dimethyl-6-oxo-5,6-dihydro-4H-pyridazin-1-yl]-piperidin-1-yl}-2-oxo-ethyl)-morpholine-3,5-dione] the same measures were 210 to 211 °C and 0.646 nM.
